Assay results as given in ChEMBL document CHEMBL3045585, “Combinatorial approach: identification of potential antifungals from triazole minilibraries” (2011).
Converted amounts (≈) assume the structure as drawn.

Experiments:
Format in all cases: functional
[1] = system: Fusarium oxysporum; assay: Antifungal activity against Fusarium oxysporum NCIM 1008 by serial dilution method
[2] = system: Aspergillus flavus; assay: Antifungal activity against Aspergillus flavus NCIM 536 by serial dilution method
[3] = system: Penicillium chrysogenum; assay: Antifungal activity against Penicillium chrysogenum NCIM 725 by serial dilution method
[4] = system: Aspergillus niger; assay: Antifungal activity against Aspergillus niger NCIM 945 by serial dilution method

MIC [1] [µg/mL]	MIC [2] [µg/mL]	MIC [3] [µg/mL]	MIC [4] [µg/mL]	Compound
62 (≈ 148 µM)	125 (≈ 298 µM)	31 (≈ 73.8 µM)	125 (≈ 298 µM)	Nc1ccccc1-c1nnc(SCc2ccccc2)n1/N=C/c1ccc(Cl)cc1
250 (≈ 602 µM)	32 (≈ 77 µM)	125 (≈ 301 µM)	62 (≈ 149 µM)	COc1ccc(/C=N/n2c(SCc3ccccc3)nnc2-c2ccccc2N)cc1
250 (≈ 623 µM)	250 (≈ 623 µM)	125 (≈ 311 µM)	31 (≈ 77.2 µM)	COc1ccc(/C=N/n2c(SCc3ccccc3)nnc2-c2ccncc2)cc1
32 (≈ 74.7 µM)	125 (≈ 292 µM)	250 (≈ 583 µM)	62 (≈ 145 µM)	CN(C)c1ccc(/C=N/n2c(SCc3ccccc3)nnc2-c2ccccc2N)cc1
